The assay has as its system CD5+/CD19+ cells of PBMCs from primary chronic lymphocytic leukemia (CLL) patients. Nature of the assay: Human CLL apoptosis assay (AnnexinV+ cells by flow cytometry). The assay is classed as cell-based. To be noted: no HS-5 co-culture. On the procedure: Peripheral blood mononuclear cells (PBMCs) were isolated from primary chronic lymphocytic leukemia (CLL) patients and cultured for 3-5 hours in Lymphocyte Growth Medium (LGM, RPMI 1640, 1 mM Sodium Pyruvate, 10 mM HEPES, pH 7.4, 100 U/mL Penicillin/100 μg/mL Streptomycin, 55 μM β-Mercaptoethanl, 2 mM GlutaMAX, and 10% FBS) at 37° C. with 5% CO2. Cells were then centrifuged at room temperature for 10 minutes and resuspended in an appropriate volume of LGM for plating (maximum cell density=3.12×10^6/ml). Final assay wells were set up in U-bottom 96-well tissue culture plates with HS-5 co-culture (plates were coated with 3×10^4 HS-5 cells in 100 μl overnight at 37° C. prior to the assay) or no co-culture.
Cell suspensions (80 μL, 2.5×10^5-9.4×10^4) were added to the plate and incubated for 1 hour prior to stimulation with αIgM/αIgG (7.8 μg/well) and αCD40 (4 μg/well). Cells were incubated with compounds for about 66 hours at 37° C. After incubation, the cells were transferred to deeper plates and washed once with 500 μL of 1× PBS^+/+. Cells were resuspended in Invitrogen's aqua Live/Dead reagent according to manufacturer's directions and incubated 30 minutes on ice. Aqua Live/Dead was quenched with an equal volume of PBS^+/+ with 4% FBS (FACS buffer). Cells were centrifuged and labeled with αCD5-PE, αCD19-BV421 and AnnexinV-APC in a total volume of 85 μL and incubated 30 minutes on ice. After labeling, cells were rinsed twice in FACS buffer and then fixed with BD Fixation buffer for 30 minutes on ice. Cells were rinsed twice with FACS buffer and analyzed.
For the apoptosis analysis, flow cytometric sampling of 5000-20,000 total events were collected on a BD FACS Canto II instrument using a high throughput screen (HTS) autosampler for analysis of apoptosis. CD5^+/CD19^+ cells were identified and subsequently gated for AnnexinV^+/LiveDead and AnnexinV^+/LiveDead^+ populations.
Flow cytometric data were extracted to a flow cytometry standard (fcs) file. Average percentages of AnnexinV^+ cells were determined for the positive control and negative wells (no compound). The percentage of AnnexinV^+ cells represented the percentage or levels of apoptosis. Similar results were obtained for CLL cells with HS-5 co-culture.
On the technique in general: A flow cytometer gives signals particle by particle.

The results in this text go back to US20180117052A1, “COMBINATION THERAPIES FOR TREATING CANCERS” (Gilead Scienes, Inc., priority 2015, published 2018).

Turning to `c1cn2cc(-c3ccc4cn[nH]c4c3)nc(Nc3ccc(N4CCOCC4)cc3)c2n1` [Compound A1, 6-(1H-indazol-6-yl)-N-(4-morpholinophenyl)imidazo[1,2-a]pyrazin-8-amine], the “Percentage of the AnnexinV^+ cells” value (Sample 1, 30 nM Compound A1, 0 nM Compound B1) was determined as 12%; the “Percentage of the AnnexinV^+ cells” value (Sample 1, 100 nM Compound A1, 0 nM Compound B1) is 12%; the “Percentage of the AnnexinV^+ cells” value (Sample 1, 300 nM Compound A1, 0 nM Compound B1) amounted to 16%; the “Percentage of the AnnexinV^+ cells” value (Sample 2, 30 nM Compound A1, 0 nM Compound B1) came out at 9%; the “Percentage of the AnnexinV^+ cells” value (Sample 2, 100 nM Compound A1, 0 nM Compound B1) is 12%; the “Percentage of the AnnexinV^+ cells” value (Sample 2, 300 nM Compound A1, 0 nM Compound B1) is reported as 20%. Further, the “Percentage of the AnnexinV^+ cells” value turned out to be 13% (Sample 3, 30 nM Compound A1, 0 nM Compound B1); 15% (Sample 3, 100 nM Compound A1, 0 nM Compound B1); 18% (Sample 3, 300 nM Compound A1, 0 nM Compound B1).
Turning to `CC1(C)CCC(CN2CCN(c3ccc(C(=O)NS(=O)(=O)c4ccc(NCC5CCOCC5)c([N+](=O)[O-])c4)c(Oc4cnc5[nH]ccc5c4)c3)CC2)=C(c2ccc(Cl)cc2)C1` [Compound B1, (4-(4-{[2-(4-chlorophenyl)-4,4-dimethylcyclohex-1-en-1-yl]methyl}piperazin-1-yl)-N-({3-nitro-4-[(tetrahydro-2H-pyran-4-yl-methyl)amino]phenyl}sulfonyl)-2-(1H-pyrrolo[2,3-b]pyridin-5-yl-oxy)benzamide)], the “Percentage of the AnnexinV^+ cells” value (Sample 1, 0 nM Compound A1, 0.8 nM Compound B1) is 13%; the “Percentage of the AnnexinV^+ cells” value (Sample 1, 0 nM Compound A1, 1.6 nM Compound B1) is recorded as 15%; the “Percentage of the AnnexinV^+ cells” value (Sample 1, 0 nM Compound A1, 3.1 nM Compound B1) is 15%; the “Percentage of the AnnexinV^+ cells” value (Sample 1, 0 nM Compound A1, 6.3 nM Compound B1) is 16%; the “Percentage of the AnnexinV^+ cells” value (Sample 1, 0 nM Compound A1, 12.5 nM Compound B1) was found to be 19%; the “Percentage of the AnnexinV^+ cells” value (Sample 1, 0 nM Compound A1, 25 nM Compound B1) came to 24%. For the same molecule, the “Percentage of the AnnexinV^+ cells” value by setting is: (Sample 1, 0 nM Compound A1, 50 nM Compound B1) 31%; (Sample 1, 0 nM Compound A1, 100 nM Compound B1) 36%; (Sample 1, 0 nM Compound A1, 200 nM Compound B1) 46%; (Sample 2, 0 nM Compound A1, 0.8 nM Compound B1) 10%; (Sample 2, 0 nM Compound A1, 1.6 nM Compound B1) 18%; (Sample 2, 0 nM Compound A1, 3.1 nM Compound B1) 35%. The “Percentage of the AnnexinV^+ cells” value reads like this: (Sample 2, 0 nM Compound A1, 6.3 nM Compound B1) 55%; (Sample 2, 0 nM Compound A1, 12.5 nM Compound B1) 76%; (Sample 2, 0 nM Compound A1, 25 nM Compound B1) 89%; (Sample 2, 0 nM Compound A1, 50 nM Compound B1) 93%; (Sample 2, 0 nM Compound A1, 100 nM Compound B1) 95%; (Sample 2, 0 nM Compound A1, 200 nM Compound B1) 97%. In addition, the “Percentage of the AnnexinV^+ cells” value was 16% (Sample 3, 0 nM Compound A1, 0.8 nM Compound B1); 21% (Sample 3, 0 nM Compound A1, 1.6 nM Compound B1); 33% (Sample 3, 0 nM Compound A1, 3.1 nM Compound B1); 50% (Sample 3, 0 nM Compound A1, 6.3 nM Compound B1); 69% (Sample 3, 0 nM Compound A1, 12.5 nM Compound B1); 89% (Sample 3, 0 nM Compound A1, 25 nM Compound B1). The “Percentage of the AnnexinV^+ cells” value (Sample 3, 0 nM Compound A1, 50 nM Compound B1) worked out at 97%; the “Percentage of the AnnexinV^+ cells” value (Sample 3, 0 nM Compound A1, 100 nM Compound B1) amounted to 99%; the “Percentage of the AnnexinV^+ cells” value (Sample 3, 0 nM Compound A1, 200 nM Compound B1) came out at 100%.
